{"source": "patent US20110003012A1", "about": "“TREATING PATIENTS WITH SUBARACHNOID HEMORRHAGE” (Duke University, priority 2007, published 2011)", "key": {"vasospasm": {"tested_on": "vasospasm", "conditions": "cited from earlier work"}, "[1]": {"tested_on": "subarachnoid hemorrhage induced vasospasm", "assay": "Intraluminal filament-induced SAH in mice, ENO inhalation for 3 days (Background Example 2)"}, "subarachnoid hemorrhage [2]": {"tested_on": "subarachnoid hemorrhage", "assay": "Laser Doppler blood flow in MCA territory and blood pressure 7 days after SAH (Background Example 3)", "format": "in vivo", "conditions": "mice 7 days after SAH", "experimental": "Mice were subjected to subarachnoid hemorrhage induced by filament perforation of the right middle cerebral artery (MCA). Mice were allowed to recover for 7 days. The mice were then anesthetized and a laser Doppler flow probe was positioned over the brain within the territory perfused by the MCA and blood pressure was recorded. The animals were allowed to stabilize for 30 minutes (time=1-30 min)."}, "hemoglobin": {"tested_on": "hemoglobin", "assay": "S-nitrosylation of hemoglobin / blood NO after 3 days exposure to ENO (FIG. 5)", "format": "in vivo", "conditions": "3 days exposure to 20 ppm ENO"}, "subarachnoid hemorrhage [3]": {"tested_on": "subarachnoid hemorrhage", "conditions": "human, in vivo"}, "[4]": {"assay": "Blood pressure with or without ENO inhalation in normal mice", "conditions": "inhalation of 20 ppm, n=5 each group"}, "[5]": {"conditions": "SAH mice, 20 ppm ENO inhalation 3 days, p<0.01"}, "[6]": {"conditions": "inhalation at 20 ppm for 3 days"}}, "note": "Like-named read-outs stand apart in the source and are kept apart here."}
{"smiles": "O=NO", "note": "[sodium nitrite]", "values": [{"measurement": "Vasospasm compared to control", "setting": "vasospasm; both regimens: low dose infusion plus bolus, or higher dose infusion without bolus", "result": "reduced vasospasm"}, {"measurement": "Vasospasm reduced to", "setting": "vasospasm; higher dose infusion, no bolus, two of three cases", "result": 20, "unit": "%"}, {"measurement": "Transient blood pressure reduction", "setting": "vasospasm; lower dose infusion over 24 hours plus bolus, after bolus", "result": "more than 15%"}]}
{"smiles": "CCON=O", "note": "[ENO, ethyl nitrite]", "values": [{"measurement": "Rotarod performance", "setting": "[1]; 3 days post-SAH, inhalation of 20 ppm, p=0.06", "result": "a trend for improvement"}, {"measurement": "Arterial narrowing (large vessel spasm)", "setting": "[1]; [5]", "result": "improved"}, {"measurement": "Decreased forebrain ROD (small vessel spasm)", "setting": "[1]; [5]", "result": "improved"}, {"measurement": "Subarachnoid hemorrhage induced vasospasm", "setting": "[1]; [6]", "result": "attenuated"}, {"measurement": "Systemic hypotension", "setting": "[1]; [6]", "result": "without causing systemic hypotension"}, {"measurement": "Effect in sham surgery mice", "setting": "[1]; sham surgery, 20 ppm inhalation, n=5 each group, p=0.9", "result": "no effect"}, {"measurement": "Mean arterial pressure", "setting": "subarachnoid hemorrhage [2]; 20 ppm ENO added to inspiratory gas", "result": "remained unchanged"}, {"measurement": "Blood flow increase (laser Doppler, MCA territory)", "setting": "subarachnoid hemorrhage [2]; onset of 20 ppm ENO", "result": 25, "unit": "%"}, {"measurement": "Red blood cell lysate nitrosothiol (SNO) increase", "setting": "hemoglobin; FIG. 5A", "result": "approximately 4 fold"}, {"measurement": "Total red blood cell NO", "setting": "hemoglobin; FIG. 5B", "result": "increase"}, {"measurement": "Change in serum total NO", "setting": "hemoglobin; FIG. 5C", "result": "negligible"}, {"measurement": "Cerebral infarction", "setting": "subarachnoid hemorrhage [3]", "result": "prevented"}, {"measurement": "Vasospasm", "setting": "subarachnoid hemorrhage [3]", "result": "does not occur"}, {"measurement": "Change in blood pressure", "setting": "[4]", "result": "did not cause a change"}]}
{"smiles": "CCCCON=O", "note": "[butyl nitrite]", "values": [{"measurement": "Cerebral infarction", "setting": "subarachnoid hemorrhage [3]; iv", "result": "prevented"}, {"measurement": "Mean arterial blood pressure reduction", "setting": "subarachnoid hemorrhage [3]; iv", "result": "≤ 10", "unit": "%"}, {"measurement": "Vasospasm", "setting": "subarachnoid hemorrhage [3]; iv", "result": "does not occur"}]}
